pEC50, pIC50, pKi: −log10 of the molar value. Activity calls are given as the source filed them. No cut-off for these calls is given here.
How the values were obtained:
[1] = target: T1, Bombesin receptor subtype-3 (Homo sapiens, UniProt P32247); assay: Displacement of [125I]-[D-Tyr6,beta-Ala11,Phe13,Nle14]-Bombesin (6-14) from human BRS-3
T1 sequence (P32247 whole entry): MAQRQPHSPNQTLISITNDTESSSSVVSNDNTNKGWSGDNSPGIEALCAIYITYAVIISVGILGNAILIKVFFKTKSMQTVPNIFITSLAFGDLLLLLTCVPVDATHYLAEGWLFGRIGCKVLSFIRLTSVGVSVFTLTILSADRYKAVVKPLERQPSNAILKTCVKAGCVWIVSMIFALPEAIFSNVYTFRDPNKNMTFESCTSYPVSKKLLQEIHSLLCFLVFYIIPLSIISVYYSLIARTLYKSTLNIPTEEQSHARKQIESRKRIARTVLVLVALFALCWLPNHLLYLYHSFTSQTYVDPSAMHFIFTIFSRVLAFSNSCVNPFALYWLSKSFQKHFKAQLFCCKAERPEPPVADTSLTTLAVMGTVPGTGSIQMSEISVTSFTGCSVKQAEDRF

[2] = test system: Mus musculus; assay: Antiobesity activity in eDIO mouse assessed as reduction of body weight at 25 mg/kg, sc after 14 days; type: functional, organism-based; set-up: dose 25 mg/kg
[3] = Volume of distribution at steady state in dog at 0.5 mg/kg, iv; type: ADME, organism-based, Canis lupus familiaris; set-up: dose 0.5 mg/kg, route intravenous; conditions: in vivo, read-out: Vdss
[4] = Agonist activity at dog BRS-3 expressed in HEK293AEQ cells assessed as induction of intracellular calcium mobilization by aequorin bioluminescence assay relative to dY peptide; conditions: Canis lupus familiaris
[5] = target: Voltage-gated inwardly rectifying potassium channel KCNH2 (Homo sapiens, UniProt Q12809); assay: Binding affinity to human ERG
[6] = Plasma clearance in mouse at 1 mg/kg, iv; type: ADME, organism-based; set-up: dose 1 mg/kg, route intravenous
[7] = Half life in rat at 1 mg/kg, iv; type: ADME, organism-based; set-up: dose 1 mg/kg, route intravenous; conditions: in vivo
[8] = Agonist activity at dog BRS-3 expressed in HEK293AEQ cells assessed as induction of intracellular calcium mobilization by aequorin bioluminescence assay; type: functional, cell-based; conditions: Canis lupus familiaris
[9] = Plasma clearance in rhesus monkey at 0.5 mg/kg, iv; type: ADME, organism-based, Macaca mulatta; set-up: dose 0.5 mg/kg, route intravenous
[10] = target: T2, Bombesin receptor subtype-3 (Mus musculus, UniProt O54798); assay: Agonist activity at mouse BRS-3 expressed in HEK293AEQ cells assessed as induction of intracellular calcium mobilization by aequorin bioluminescence assay; type: functional, cell-based
T2 sequence (O54798 whole entry): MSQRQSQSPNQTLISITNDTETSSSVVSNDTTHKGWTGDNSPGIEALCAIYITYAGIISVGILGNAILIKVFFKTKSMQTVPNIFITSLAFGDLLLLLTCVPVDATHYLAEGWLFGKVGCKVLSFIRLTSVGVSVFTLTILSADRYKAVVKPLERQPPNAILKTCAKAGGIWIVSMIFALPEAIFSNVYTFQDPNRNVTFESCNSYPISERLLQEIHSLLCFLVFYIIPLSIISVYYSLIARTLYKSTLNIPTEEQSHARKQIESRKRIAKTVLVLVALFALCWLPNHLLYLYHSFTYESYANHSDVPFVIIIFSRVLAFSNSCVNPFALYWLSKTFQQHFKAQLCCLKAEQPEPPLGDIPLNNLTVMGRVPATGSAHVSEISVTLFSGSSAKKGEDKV

[11] = species: Mus musculus; assay: Antiobesity activity in BRS3 deficient mouse assessed as increase of fasting metabolic rate; type: functional, organism-based
[12] = Oral bioavailability in rhesus monkey at 1 mg/kg; type: ADME, organism-based, Macaca mulatta; conditions: in vivo
[13] = species: Mus musculus; assay: Antiobesity activity in BRS3 deficient mouse assessed as reduction of food intake; type: functional, organism-based
[14] = target: T3, Bombesin receptor subtype-3 (Rattus norvegicus, UniProt Q8K418); assay: Agonist activity at rat BRS-3 expressed in HEK293AEQ cells assessed as induction of intracellular calcium mobilization by aequorin bioluminescence assay; type: functional, cell-based
T3 sequence (Q8K418 whole entry): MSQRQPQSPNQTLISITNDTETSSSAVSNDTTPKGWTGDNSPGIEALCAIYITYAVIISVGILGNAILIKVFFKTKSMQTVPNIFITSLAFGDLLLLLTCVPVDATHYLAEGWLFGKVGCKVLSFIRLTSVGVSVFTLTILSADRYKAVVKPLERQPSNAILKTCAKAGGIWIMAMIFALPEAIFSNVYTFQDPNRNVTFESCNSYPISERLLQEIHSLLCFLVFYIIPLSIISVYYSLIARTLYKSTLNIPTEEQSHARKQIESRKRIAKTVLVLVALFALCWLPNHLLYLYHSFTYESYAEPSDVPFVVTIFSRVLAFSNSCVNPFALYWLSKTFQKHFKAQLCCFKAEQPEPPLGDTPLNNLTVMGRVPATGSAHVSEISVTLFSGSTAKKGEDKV

[15] = Binding affinity to dog BRS-3; set-up: species or system Canis lupus familiaris
[16] = Oral bioavailability in rat at 2 mg/kg; type: ADME, organism-based; conditions: in vivo
[17] = Plasma clearance in rat at 1 mg/kg, iv; type: ADME, organism-based; set-up: dose 1 mg/kg, route intravenous
[18] = species: Mus musculus; assay: Antiobesity activity in wild type mouse assessed as reduction of food intake; type: functional, organism-based
[19] = Oral bioavailability in dog at 1 mg/kg; type: ADME, organism-based, Canis lupus familiaris; conditions: in vivo
[20] = Half life in mouse at 1 mg/kg, iv; type: ADME, organism-based; set-up: dose 1 mg/kg, route intravenous; conditions: in vivo
[21] = Agonist activity at rhesus monkey BRS-3 expressed in HEK293AEQ cells assessed as induction of intracellular calcium mobilization by aequorin bioluminescence assay; type: functional, cell-based; conditions: Macaca mulatta
[22] = target: T2, Bombesin receptor subtype-3; assay: Displacement of [3H]Bag-3 from mouse BRS-3
[23] = Half life in dog at 0.5 mg/kg, iv; type: ADME, organism-based, Canis lupus familiaris; set-up: dose 0.5 mg/kg, route intravenous; conditions: in vivo
[24] = Volume of distribution at steady state in rhesus monkey at 0.5 mg/kg, iv; type: ADME, organism-based, Macaca mulatta; set-up: dose 0.5 mg/kg, route intravenous; conditions: in vivo, read-out: Vdss
[25] = Volume of distribution at steady state in rat at 1 mg/kg, iv; type: ADME, organism-based; set-up: dose 1 mg/kg, route intravenous; conditions: in vivo, read-out: Vdss
[26] = Oral bioavailability in mouse at 2 mg/kg, po; type: ADME, organism-based; conditions: in vivo
[27] = species: Mus musculus; assay: Antiobesity activity in wild type mouse assessed as increase of fasting metabolic rate; type: functional, organism-based
[28] = target: T3, Bombesin receptor subtype-3; assay: Displacement of [3H]Bag-3 from rat BRS-3
[29] = Plasma clearance in dog at 0.5 mg/kg, iv; type: ADME, organism-based, Canis lupus familiaris; set-up: dose 0.5 mg/kg, route intravenous
[30] = test system: Mus musculus; assay: Antiobesity activity in eDIO mouse assessed as reduction of body weight at 25 mg/kg, sc relative to control; type: functional; set-up: scale not given: the % may be the effect or the level left; conditions: route subcutaneous
[31] = Binding affinity to rhesus monkey BRS-3; set-up: species or system Macaca mulatta
[32] = Faction unbound in human plasma at 1 uM; type: ADME, cell-free
[33] = target: T1, Bombesin receptor subtype-3; assay: Agonist activity at human BRS-3 expressed in HEK293AEQ cells assessed as induction of intracellular calcium mobilization by aequorin bioluminescence assay; type: functional, cell-based
[34] = Half life in rhesus monkey at 0.5 mg/kg, iv; type: ADME, organism-based, Macaca mulatta; set-up: dose 0.5 mg/kg, route intravenous; conditions: in vivo
[35] = Agonist activity at rhesus monkey BRS-3 expressed in HEK293AEQ cells assessed as induction of intracellular calcium mobilization by aequorin bioluminescence assay relative to dY peptide; conditions: Macaca mulatta
[36] = Volume of distribution at steady state in mouse at 1 mg/kg, iv; type: ADME, organism-based; set-up: dose 1 mg/kg, route intravenous; conditions: in vivo, read-out: Vdss
[37] = Half life in rat liver microsomes
[38] = Fraction unbound in rat plasma at 1 uM; type: ADME, cell-free
[39] = target: Gastrin-releasing peptide receptor (Homo sapiens, UniProt P30550); assay: Inhibition of human GRPR
[40] = Inhibition of human calcium channel diltiazem binding site
[41] = target: Neuromedin-B receptor (Homo sapiens, UniProt P28336); assay: Inhibition of human NMBR
[42] = target: T4, Nuclear receptor subfamily 1 group I member 2 (Homo sapiens, UniProt O75469)
T4 sequence (O75469 whole entry): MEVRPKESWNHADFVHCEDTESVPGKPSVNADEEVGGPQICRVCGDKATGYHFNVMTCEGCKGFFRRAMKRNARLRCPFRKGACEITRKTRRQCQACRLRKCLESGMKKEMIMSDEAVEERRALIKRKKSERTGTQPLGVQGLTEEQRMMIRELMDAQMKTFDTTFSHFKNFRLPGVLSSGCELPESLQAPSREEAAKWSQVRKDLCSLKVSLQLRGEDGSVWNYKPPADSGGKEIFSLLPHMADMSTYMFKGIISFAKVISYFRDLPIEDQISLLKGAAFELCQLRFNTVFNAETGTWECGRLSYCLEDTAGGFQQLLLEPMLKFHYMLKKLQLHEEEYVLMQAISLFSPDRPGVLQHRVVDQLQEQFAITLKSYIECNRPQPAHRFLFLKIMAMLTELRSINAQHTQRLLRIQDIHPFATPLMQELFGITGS

Chain of Voltage-gated inwardly rectifying potassium channel KCNH2 (Q12809 whole entry): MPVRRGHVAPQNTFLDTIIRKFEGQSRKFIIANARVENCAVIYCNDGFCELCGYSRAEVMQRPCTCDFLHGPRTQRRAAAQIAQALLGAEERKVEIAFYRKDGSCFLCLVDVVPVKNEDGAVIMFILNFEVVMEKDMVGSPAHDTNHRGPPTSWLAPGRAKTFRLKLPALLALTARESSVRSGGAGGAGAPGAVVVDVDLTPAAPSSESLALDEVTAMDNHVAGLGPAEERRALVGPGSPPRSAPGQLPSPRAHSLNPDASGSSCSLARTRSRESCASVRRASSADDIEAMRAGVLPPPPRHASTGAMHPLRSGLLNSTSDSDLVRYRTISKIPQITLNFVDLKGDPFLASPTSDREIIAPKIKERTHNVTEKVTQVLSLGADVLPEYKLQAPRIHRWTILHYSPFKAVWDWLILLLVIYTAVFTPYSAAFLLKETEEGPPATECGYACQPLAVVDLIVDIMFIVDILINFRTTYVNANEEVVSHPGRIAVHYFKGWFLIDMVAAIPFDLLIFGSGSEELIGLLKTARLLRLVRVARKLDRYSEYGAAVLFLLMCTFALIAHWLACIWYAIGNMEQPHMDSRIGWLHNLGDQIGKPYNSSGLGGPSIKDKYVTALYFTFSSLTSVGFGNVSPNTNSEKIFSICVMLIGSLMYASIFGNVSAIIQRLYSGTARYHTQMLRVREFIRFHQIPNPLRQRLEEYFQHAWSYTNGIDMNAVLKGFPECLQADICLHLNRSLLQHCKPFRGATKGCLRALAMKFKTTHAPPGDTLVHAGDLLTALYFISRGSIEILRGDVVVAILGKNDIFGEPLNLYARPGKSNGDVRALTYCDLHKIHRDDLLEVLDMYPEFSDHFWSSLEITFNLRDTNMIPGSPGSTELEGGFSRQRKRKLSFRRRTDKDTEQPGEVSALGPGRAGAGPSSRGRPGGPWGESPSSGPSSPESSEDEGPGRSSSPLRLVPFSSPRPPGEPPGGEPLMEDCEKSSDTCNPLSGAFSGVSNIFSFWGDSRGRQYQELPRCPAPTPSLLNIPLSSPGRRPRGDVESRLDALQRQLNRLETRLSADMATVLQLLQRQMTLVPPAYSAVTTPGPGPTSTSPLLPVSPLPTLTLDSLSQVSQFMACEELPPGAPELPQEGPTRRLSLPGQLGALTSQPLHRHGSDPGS
Chain of Neuromedin-B receptor (P28336 whole entry): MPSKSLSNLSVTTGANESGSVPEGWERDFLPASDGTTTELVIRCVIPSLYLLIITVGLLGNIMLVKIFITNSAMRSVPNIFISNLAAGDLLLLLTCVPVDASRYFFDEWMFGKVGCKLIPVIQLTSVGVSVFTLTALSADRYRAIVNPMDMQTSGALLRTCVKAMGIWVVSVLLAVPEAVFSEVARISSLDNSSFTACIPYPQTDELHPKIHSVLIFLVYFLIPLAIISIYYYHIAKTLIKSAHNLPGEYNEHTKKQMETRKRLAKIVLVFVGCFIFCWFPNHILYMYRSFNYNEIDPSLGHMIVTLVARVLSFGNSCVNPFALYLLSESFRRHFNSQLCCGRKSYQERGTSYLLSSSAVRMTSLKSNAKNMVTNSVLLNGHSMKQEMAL
Chain of Gastrin-releasing peptide receptor (P30550 whole entry): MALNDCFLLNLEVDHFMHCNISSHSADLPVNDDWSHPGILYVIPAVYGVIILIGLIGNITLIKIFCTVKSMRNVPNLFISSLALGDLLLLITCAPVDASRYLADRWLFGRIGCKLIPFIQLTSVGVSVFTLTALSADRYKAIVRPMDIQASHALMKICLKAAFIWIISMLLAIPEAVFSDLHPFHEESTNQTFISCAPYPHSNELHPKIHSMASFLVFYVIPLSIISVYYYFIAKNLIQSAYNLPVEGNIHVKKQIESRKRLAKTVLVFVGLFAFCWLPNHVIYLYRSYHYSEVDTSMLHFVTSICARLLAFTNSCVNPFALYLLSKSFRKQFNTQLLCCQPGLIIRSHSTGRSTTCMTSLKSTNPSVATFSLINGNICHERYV

In the case of `O[C@@](Cc1nc(CC2(C(F)(F)F)CC2)c[nH]1)(c1ccc(-n2cccn2)cc1)C(F)(F)F`, the pIC50 [1] was 7.57, the pKi [1] was 8.43 and the Activity [2] was “Active”. The Vd [3] was 0.45 L/kg, the Emax [4] was 100% and the pKi [5] was under 5.10. It also gave a clearance [6] of 32 mL/min/kg, a half-life [7] of 42 min and a pEC50 [8] of 8.80. The clearance [9] was 8.8 mL/min/kg, the pEC50 [10] was 7.68 and the Activity [11] was “inactive”. The bioavailability [12] was 18%, the Activity [13] was “inactive” and the pEC50 [14] was 8.66. For the same compound, the pIC50 [15] was 8.19, the pKi [15] was 8.00 and the bioavailability [16] was 64%. For the same compound, the clearance [17] was 20 mL/min/kg, the Activity [18] was “Active” and the bioavailability [19] was 52%. It also gave a half-life [20] of 66 min, a pEC50 [21] of 8.16 and a pIC50 [22] of 8.27. It also gave a pKi [22] of 8.80, a half-life [23] of 84 min and a Vd [24] of 0.44 L/kg. For the same compound, the Vd [25] was 0.98 L/kg, the bioavailability [26] was 9.6% and the Activity [27] was “Active”. The pIC50 [28] was 8.92, the pKi [28] was 9.22 and the clearance [29] was 5.6 mL/min/kg. It also gave an Activity [30] of 8%, a pIC50 [31] of 7.30 and a pKi [31] of 8.62. The fraction unbound at 1 µM [32] was 0.01, the pEC50 [33] was 7.85 and the half-life [34] was 60 min. It also gave an Emax [35] of 110% and a Vd [36] of 2.2 L/kg.

`CCC(C)(C)Cc1cnc(CCc2ccc(-c3ccc(F)cn3)cc2)[nH]1` showed a pIC50 [1] of 7.80, a clearance [17] of 12 mL/min/kg and a half-life [37] of 3 min.

With `CC(O)(Cc1nc(CC2(C(F)(F)F)CC2)c[nH]1)c1ccc(-n2cccn2)cc1` (stereo not drawn) the pIC50 [1] was 7.96, the clearance [17] was 52 mL/min/kg and the bioavailability [19] was 29%. For the same compound, the half-life [23] was 18 min, the clearance [29] was 10 mL/min/kg and the fraction unbound at 1 µM [32] was 0.032. It also gave a pEC50 [33] of 7.85.

`CC(C)(C)Cc1c[nH]c(C(C)(O)Cc2ccc(-c3ccc(F)cn3)cc2)n1` (stereo not drawn) gave a pIC50 [1] of 7.09, a fraction unbound at 1 µM [38] of 0.2 and a pKi [5] of 5.23. The clearance [17] was 14 mL/min/kg, the fraction unbound at 1 µM [32] was 0.001 and the pEC50 [33] was 6.66. For the same compound, the half-life [37] was 1 min.

With `CC(C)(C)Cc1c[nH]c(CC(C)(O)c2ccc(-n3cccn3)cc2)n1` (stereo not drawn) the pIC50 [1] was 8.30, the clearance [17] was 110 mL/min/kg and the fraction unbound at 1 µM [32] was 0.068. It also gave a pEC50 [33] of 7.80.

Work on `CC(C)(C)Cc1c[nH]c(CC(C)(O)c2ccc(-c3ccc(F)cn3)cc2)n1` (stereo not drawn) yielded a pIC50 [1] of 7.77, a fraction unbound at 1 µM [38] of 0.2 and a pKi [5] of 5.38. For the same compound, the pIC50 [39] was under 5.00, the pIC50 [40] was 5.72 and the pIC50 [41] was under 5.00. For the same compound, the clearance [17] was 28 mL/min/kg, the fraction unbound at 1 µM [32] was 0.004 and the pEC50 [33] was 7.17. It also gave a half-life [37] of 5 min and a pEC50 [42] of under 4.60.

Source: ChEMBL document CHEMBL1671827, “Discovery of MK-5046, a Potent, Selective Bombesin Receptor Subtype-3 Agonist for the Treatment of Obesity” (ACS Med Chem Lett, 2011)
